Experimental data: the supplement of paper PMC11451515

Tested on: SEM cells
Test: cell viability relative to DMSO control; higher = less cytotoxic
Settings: 48 h
In short: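 Library compounds in DMSO were pin-dosed in an 11-point threefold series (47 μM to 0.79 nM) onto leukemia cells in 1536-well plates (5 μl). Plates held 500 cells/well of NOMO1 or SEM or 1000 cells/well of P12-Ichikawa, each adapted for at least four passages in each medium. Luminescence was read with CellTiter-Glo One after 48 h at 37°C. Viability means the per-plate percentage relative to DMSO wells, using cell-free wells as background.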

[1] = HPLM + 10% dialyzed FBS, 0.000781 µM
[2] = HPLM + 10% dialyzed FBS, 0.00234 µM
[3] = HPLM + 10% dialyzed FBS, 0.00702 µM
[4] = HPLM + 10% dialyzed FBS, 0.0211 µM
[5] = HPLM + 10% dialyzed FBS, 0.0632 µM
[6] = HPLM + 10% dialyzed FBS, 0.19 µM
[7] = HPLM + 10% dialyzed FBS, 0.569 µM
[8] = HPLM + 10% dialyzed FBS, 1.71 µM
[9] = HPLM + 10% dialyzed FBS, 5.12 µM
[10] = HPLM + 10% dialyzed FBS, 15.4 µM
[11] = HPLM + 10% dialyzed FBS, 46.1 µM
[12] = RPMI 5 mM glucose + 10% FBS, 0.000781 µM
[13] = RPMI 5 mM glucose + 10% FBS, 0.00234 µM
[14] = RPMI 5 mM glucose + 10% FBS, 0.00702 µM
[15] = RPMI 5 mM glucose + 10% FBS, 0.0211 µM
[16] = RPMI 5 mM glucose + 10% FBS, 0.0632 µM
[17] = RPMI 5 mM glucose + 10% FBS, 0.19 µM
[18] = RPMI 5 mM glucose + 10% FBS, 0.569 µM
[19] = RPMI 5 mM glucose + 10% FBS, 1.71 µM
[20] = RPMI 5 mM glucose + 10% FBS, 5.12 µM
[21] = RPMI 5 mM glucose + 10% FBS, 15.4 µM
[22] = RPMI 5 mM glucose + 10% FBS, 46.1 µM
[23] = RPMI 5 mM glucose + 10% dialyzed FBS, 0.000781 µM
[24] = RPMI 5 mM glucose + 10% dialyzed FBS, 0.00234 µM
[25] = RPMI 5 mM glucose + 10% dialyzed FBS, 0.00702 µM
[26] = RPMI 5 mM glucose + 10% dialyzed FBS, 0.0211 µM
[27] = RPMI 5 mM glucose + 10% dialyzed FBS, 0.0632 µM
[28] = RPMI 5 mM glucose + 10% dialyzed FBS, 0.19 µM
[29] = RPMI 5 mM glucose + 10% dialyzed FBS, 0.569 µM
[30] = RPMI 5 mM glucose + 10% dialyzed FBS, 1.71 µM
[31] = RPMI 5 mM glucose + 10% dialyzed FBS, 5.12 µM
[32] = RPMI 5 mM glucose + 10% dialyzed FBS, 15.4 µM
[33] = RPMI 5 mM glucose + 10% dialyzed FBS, 46.1 µM

SMILES	cell viability [1] [%]	cell viability [2] [%]	cell viability [3] [%]	cell viability [4] [%]	cell viability [5] [%]	cell viability [6] [%]	cell viability [7] [%]	cell viability [8] [%]	cell viability [9] [%]	cell viability [10] [%]	cell viability [11] [%]	cell viability [12] [%]	cell viability [13] [%]	cell viability [14] [%]	cell viability [15] [%]	cell viability [16] [%]	cell viability [17] [%]	cell viability [18] [%]	cell viability [19] [%]	cell viability [20] [%]	cell viability [21] [%]	cell viability [22] [%]	cell viability [23] [%]	cell viability [24] [%]	cell viability [25] [%]	cell viability [26] [%]	cell viability [27] [%]	cell viability [28] [%]	cell viability [29] [%]	cell viability [30] [%]	cell viability [31] [%]	cell viability [32] [%]	cell viability [33] [%]
CC(S)C(=O)NCC(=O)O (centres undefined)	40	99	59.5	95	105	101	92.8	103	90.6	113	95	33	102	50.5	87.8	114	105	101	105	84	109	108	35.6	92.5	45	101	123	108	114	118	80.7	119	104
C1CN\2C[C@@H](\N=C2S1)C3=CC=CC=C3	82.1	95	104	88.6	98.7	99.5	100	100	97.8	100	86.1	73.7	86.7	89.4	83.1	90.9	75.2	87.6	89.3	88	87.8	40.4	88.8	95.3	100	107	106	116	107	106	118	100	76.9
CCOC(=O)O[C@]1(C(=O)OCCl)CC[C@H]2[C@@H]3CCC4=CC(=O)C=C[C@]4(C)[C@H]3[C@@H](O)C[C@@]21C	84.2	92.5	93.3	102	101	99.3	95.6	96	102	88.7	100	82.9	85.4	87.9	84.6	92.7	87.3	85.1	109	107	96.1	96.6	83.5	87.4	93.6	85.7	85.4	94.8	86.1	89.3	96.4	99.2	92
N[C@@H](Cc1ccc(O)c(O)c1)C(=O)O	86.4	101	102	100	107	108	108	111	122	107	109	108	100	107	108	116	115	106	116	126	121	127	92.1	97.6	108	116	117	116	117	123	122	128	105
COc1cc2ncn(-c3cc(OCc4ccccc4C(F)(F)F)c(C(N)=O)s3)c2cc1OC	120	121	116	115	115	104	110	65.3	28.6	22.4	20.7	124	121	122	115	124	105	128	74	18.4	13.4	13.1	108	112	124	120	116	142	139	103	25.9	20.3	19.5
CCOC(=O)[C@@H](N)CCC(=O)N[C@@H](CSCc1ccccc1)C(=O)N[C@@H](C(=O)OCC)c1ccccc1	84.5	105	99.8	103	104	111	109	116	119	97.1	102																						
CN1CCC(CC1)=C2C3=C(C=CC=C3)\C=C/C4=C2C=CC=C4	102	109	120	121	125	126	123	112	131	105	103	118	121	126	115	125	135	139	138	130	113	101	101	109	117	117	133	134	130	104	119	112	86.7
